From patent US20080031968A1, “Methods for increasing cellular energy expenditure” (priority 2005, published 2008) come the findings set out here.

One assay concerns KK-Ay mice. The assay is described as follows: Liver TG and cholesterol content and histology in KK-Ay mice. Format: in vivo, mouse. How it is done: Male C57BL/6J, KK-Ay, and ob/ob (C57BL/6J background) mice, 6-10 weeks of age, were obtained from Elevage Janvier (Le Genest St. Isle, France), CLEA Japan Inc. (Tokyo, Japan), and The Jackson Laboratory (Bar Harbor, Me., USA), respectively. All mice were maintained in a temperature-controlled (23° C.) facility with a 12-hour light/dark cycle and were given free access to food and water. The study protocols were approved by the institutional review boards. The body weight and food intake were measured every second day. The control and high-fat diet was obtained from UAR (Villemoisson sur Orge, France). […] The mice were fasted 4 hours before harvesting blood for subsequent lipid measurements, and tissues for RNA isolation, lipid measurements, and histology.
For measurement of liver TGs and cholesterol content, a liver was homogenized in chloroform/methanol (2:1 v/v) using a Polytron tissue grinder (Kinematica AG, Luzern, Switzerland). Lipid extracts were prepared by the classical Folch method. Extracts were dried under N2 flow and resuspended in isopropanol.

In the next assay the target is T1, TGR5 (Homo sapiens, UniProt Q8TDU6).
T1 construct: expressed in transfected cells
T1 sequence (Q8TDU6 1-330): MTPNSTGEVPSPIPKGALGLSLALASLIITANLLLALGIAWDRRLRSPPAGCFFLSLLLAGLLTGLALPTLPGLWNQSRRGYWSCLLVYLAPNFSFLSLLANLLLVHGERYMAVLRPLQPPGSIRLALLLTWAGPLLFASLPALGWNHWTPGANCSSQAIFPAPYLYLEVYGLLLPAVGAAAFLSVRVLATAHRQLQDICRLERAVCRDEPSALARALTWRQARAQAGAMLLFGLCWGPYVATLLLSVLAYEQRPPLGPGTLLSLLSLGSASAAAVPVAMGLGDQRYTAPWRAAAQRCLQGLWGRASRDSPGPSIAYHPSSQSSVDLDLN
Briefly: cAMP response element (CRE)-luciferase reporter assay with TGR5. Particulars: cells co-transfected with TGR5 expression plasmid and CRE-driven luciferase reporter. Format: cell-based. From the text:
Since a synthetic FXRα agonist was unable to phenocopy the effects of BAs on energy expenditure, we focused our attention on FXRα-independent signaling events stimulated by BAs. […] We used a cAMP response element (CRE)-luciferase reporter assay to confirm that TGR5 is a BA receptor.
We used quantitative RT-PCR to measure the expression of D2 and TGR5 mRNAs in selected mouse tissues.
Background: Reporter assays use an easily measured gene product as a stand-in for the process of interest.

The subject of the next assay is mouse SREBP-1c promoter. Briefly: SREBP-1c promoter luciferase reporter assay in McA-RH7777 cells. Format: cell-based. Particulars: McA-RH7777 rat hepatoma cells, LXRα transfection and/or LXR and RXR agonists.

Experimental for mouse SREBP-1c promoter: The LXR response elements in pSREBP-1c324-Luc were mutated for promoter analysis using the Quick Change Site-Directed Mutagenesis Kit (Stratagene, La Jolla, Calif., USA).
The rat hepatoma cell line McA-RH7777 was obtained from ATCC (Manassas, Va., USA). […] Transfections were performed in 96-well plates using Lipofectamine 2000 (Invitrogen, Cergy Pontoise, France). Each well contained 64 ng luciferase reporter and 4 ng of β-galactosidase expression plasmid. We transfected 16 ng RXRα, 16 ng LXRα, 16 ng LRH-1, 32 ng SHP expression plasmids, or the corresponding empty expression vectors. After 6 hours of incubation with the DNA-lipofectamine complexes, the transfection medium was exchanged for medium with or without the indicated ligands. Ligands for LXR and RXR were dissolved in ethanol or DMSO and added to the cells in DMEM supplemented with 10% lipoprotein-deficient serum. To suppress SREBP-1c activation by processing, leading to feed-forward induction of SREBP-1c expression, the medium used for the SREBP-1c promoter study was also supplemented with 10 μg/ml cholesterol and 1 μg/ml 25-hydroxycholesterol. Luciferase measurements were normalized to β-galactosidase activity.

Consider `C[C@H](CCC(=O)O)[C@H]1CC[C@H]2[C@@H]3[C@H](O)C[C@@H]4C[C@H](O)CC[C@]4(C)[C@H]3C[C@H](O)[C@]12C` [CA, cholic acid], for which, in the assay on KK-Ay mice (CA 3 weeks, chow or high-fat diet), the “liver TGs content” value is “significantly lower”. Besides, in the assay with KK-Ay mice (CA 3 weeks, particularly high-fat diet), the hepatic cholesterol entry was “increased hepatic cholesterol”. In the assay on KK-Ay mice (high-fat diet with CA, 3 weeks), the “neutral lipids in liver sections (Oil Red O)” value is on record as “accumulated less neutral lipids”. In addition, the luciferase expression result at TGR5 is “increased luciferase expression in a dose-dependent manner”. Besides, the “increase of SREBP-1c promoter activity” value in the assay with mouse SREBP-1c promoter is “attenuated”.
